Results taken from paper PMC6155021, “Ancient and modern anticonvulsants act synergistically in a KCNQ potassium channel binding pocket” (Nature Communications, 2018).

Assays:
Format in all cases: cell-based
[1] = molecular target: T1, KCNQ2/3 channels (Homo sapiens, UniProt O43525+O43526); assay: Two-electrode voltage-clamp of KCNQ2/3 channels expressed in Xenopus laevis oocytes
Description: (§1) cRNA transcripts encoding human KCNA1, KCNQ1, KCNQ2, KCNQ3, KCNQ4, or KCNQ5 were generated by in vitro transcription using the T7 polymerase message machine kit (Thermo Fisher Scientific), after vector linearization, from cDNA sub-cloned into plasmids incorporating X. laevis β-globin 5′ and 3′ UTRs flanking the coding region to enhance translation and cRNA stability. cRNA was quantified by spectrophotometry. Mutant cDNAs were generated by site-directed mutagenesis using a QuikChange kit according to manufacturer’s protocol (Stratagene, San Diego, CA) and corresponding cRNAs prepared as above. Defolliculated stage V and VI X. laevis oocytes (Ecocyte Bioscience, Austin, TX) were injected with Kv channel α subunit cRNAs (10 ng total per oocyte). Oocytes were incubated at 16 °C in Barth’s saline solution (Ecocyte) containing penicillin and streptomycin, with daily washing, for 3–5 days prior to two-electrode voltage-clamp (TEVC) recording.
(§2) Oocytes were placed in a small-volume oocyte bath (Warner) and viewed with a dissection microscope. Chemicals were sourced from Sigma. Bath solution was (in mM): 96 NaCl, 4 KCl, 1 MgCl2, 1 CaCl2, 10 HEPES (pH 7.6). […] MTX (DMSO), sorbic acid (ethanol), and glutaconic acid (molecular grade H2O) were stored at −20 °C as 1 M stocks. Oleamide was stored as a 1 mM stock in ethanol at 4 °C. Palmitic acid was conjugated with bovine serum albumin as a 1 mM stock and stored at −20 °C. All compounds were diluted to working concentrations each experimental day. All compounds were introduced to the recording bath via gravity perfusion at a constant flow of 1 ml/min for 3 min prior to recording. Pipettes were of 1–2 MΩ resistance when filled with 3 M KCl. Currents were recorded in response to pulses between −80 and +40 mV at 20 mV intervals, or a single pulse to +40 mV, from a holding potential of −80 mV, to yield current–voltage relationships, current magnitude, and for quantifying activation rate. TEVC data analysis was performed with Clampfit10.2 (Molecular Devices) and Graphpad Prism software (GraphPad, San Diego, CA, USA); values are stated as mean ± SEM. Normalized tail currents were plotted versus prepulse voltage and fitted with a single Boltzmann function:1 g=A1-A2/1+expV12-Vy+A2, where g is the normalized tail conductance, A1 is the initial value at −∞, A2 is the final value at +∞, V1/2 is the half-maximal voltage of activation, and Vs the slope factor. Activation and deactivation kinetics were fitted with single-exponential functions.

[2] = molecular target: KCNQ3* (KCNQ3-A315T) (Homo sapiens, UniProt O43525, A315T); assay: cell-based
Description: as §1, §2

[3] = molecular target: T1, KCNQ2/3 channels; assay: Relative ion permeability of KCNQ2/3 channels (pseudo-bi-ionic substitution, GRb/GK); settings: MTX 30 µM
Description: For relative permeability studies, currents were recorded in response to a single pulse to +40 mV for 5 s, followed by pulses between −80 mV and +40 mV at 20 mV intervals, from a holding potential of −80 mV, to yield a current–voltage relationship. According to the Goldman–Hodgkin–Katz (GHK) voltage equation:2 Erev=RT∕FlnPKK^+O+PNaNaO+PClCli/PKK^+i+PNaNai+PClClo, where Erev is the absolute reversal potential and P is the permeability. This permits calculation of the relative permeability of each ion if concentrations on either side of the membrane are known. A modified version of this equation was used here to determine relative permeability of two ions in a system in which only the extracellular ion concentration was known. Thus, relative permeability of Rb^+, Cs^+, and Na^+ compared to K^+ ions was calculated for all channels by plotting the I/V relationships for each channel with each extracellular ion (100 mM) and comparing them to that with 100 mM extracellular K^+ ion to yield a change in reversal potential (ΔErev) for each ion compared to that of K^+. Permeability ratios for each ion compared to K^+ were then calculated as3 ΔErev=Erev,X-Erev,K=RT/zFlnPX/PK
For calculating Rb^+/K^+ permeability (Fig. 3g), tail currents were elicited by a single pulse to +40 mV, followed by a pulse at −80 mV, from a holding potential of −80 mV in 98 mM [K^+] and then 98 mM [Rb^+]. […]

[4] = molecular target: KCNQ2-W236L/KCNQ3-W265L channels (Homo sapiens, UniProt O43525+O43526, W236L/W265L); assay: Two-electrode voltage-clamp of W236L-Q2/W265L-Q3 mutant channels in Xenopus oocytes; settings: for Non-normalized tail current V0.5 / Normalized tail current V0.5 / Slope: W236L-Q2/W265L-Q3
Description: as §1, §2

[5] = KCNQ2/3, 30 µM, Supplementary Table 10
[6] = KCNQ2/3, 30 µM, Supplementary Table 11
[7] = KCNQ2/3, 30 µM, dose series (Supplementary Table 5)

KCNQ3* (KCNQ3-A315T), sequence (O43525 whole entry A315T, looked up): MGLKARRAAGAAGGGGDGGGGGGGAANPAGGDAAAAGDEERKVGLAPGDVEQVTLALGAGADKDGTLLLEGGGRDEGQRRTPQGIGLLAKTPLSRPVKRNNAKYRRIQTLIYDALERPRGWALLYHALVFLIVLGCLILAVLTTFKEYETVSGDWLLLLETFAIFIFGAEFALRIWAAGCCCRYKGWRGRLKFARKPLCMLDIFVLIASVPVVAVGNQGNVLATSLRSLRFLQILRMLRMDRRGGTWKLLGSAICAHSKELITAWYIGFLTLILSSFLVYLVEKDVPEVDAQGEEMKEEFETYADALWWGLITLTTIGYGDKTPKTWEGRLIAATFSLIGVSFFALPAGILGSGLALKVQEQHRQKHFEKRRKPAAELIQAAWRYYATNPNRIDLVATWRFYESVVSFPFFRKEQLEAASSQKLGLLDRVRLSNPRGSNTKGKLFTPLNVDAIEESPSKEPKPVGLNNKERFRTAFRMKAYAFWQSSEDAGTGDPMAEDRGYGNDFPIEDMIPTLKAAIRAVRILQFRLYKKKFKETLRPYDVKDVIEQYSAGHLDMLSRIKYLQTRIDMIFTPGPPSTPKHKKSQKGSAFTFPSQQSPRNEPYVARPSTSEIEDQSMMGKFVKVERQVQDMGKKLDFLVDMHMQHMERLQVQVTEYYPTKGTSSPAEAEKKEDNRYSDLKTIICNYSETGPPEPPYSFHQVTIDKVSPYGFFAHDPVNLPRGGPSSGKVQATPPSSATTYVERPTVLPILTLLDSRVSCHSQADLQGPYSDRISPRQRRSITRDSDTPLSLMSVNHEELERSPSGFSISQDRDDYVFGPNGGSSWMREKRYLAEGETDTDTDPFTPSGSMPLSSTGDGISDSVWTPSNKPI

Structure (SMILES): CC(=O)c1c(O)c(C)c(O)c(Cc2c(O)c3c(c(C(=O)/C=C/c4ccccc4)c2O)OC(C)(C)C=C3)c1O [MTX, mallotoxin]
- resting membrane potential (EM) of unclamped oocytes expressing KCNQ2/3 [1]: dose-dependently hyperpolarizes
- effects on KCNQ2/3 ([1]; 1 µM alone): negligible effects
- effect on voltage dependence of KCNQ2/3 activation (initial screen) ([1]; 30 µM, tail currents at −30 mV): negative-shifted
- KCNQ2/3 current increase at −60 mV ([1]; 100 µM): seven-fold
- effect on KCNQ2/3 at +40 mV ([1]; +40 mV): little effect
- EC50 ([1]; EC50, KCNQ2/3, current at −60 mV, calculated from dose responses): 11.5 ± 0.2 µM
- Non-normalized tail current V0.5 ([1]; KCNQ2/3, 0.1 µM): -47.3 ± 2.4 mV
- Normalized tail current V0.5 ([1]; KCNQ2/3, 0.1 µM): -47.8 ± 0.5 mV
- Slope ([1]; KCNQ2/3, 0.1 µM): 7.5 ± 0.4 mV
- τ act, -40 mV ([1]; KCNQ2/3, 0.1 µM): 684 ± 55 ms
- τ deact, -80 mV ([1]; KCNQ2/3, 0.1 µM): 236 ± 12 ms
- Non-normalized tail current V0.5 ([1]; KCNQ2/3, 1 µM): -44.4 ± 4.9 mV
- Normalized tail current V0.5 ([1]; KCNQ2/3, 1 µM): -47.0 ± 0.9 mV
- Slope ([1]; KCNQ2/3, 1 µM): 7.4 ± 0.6 mV
- τ act, -40 mV ([1]; KCNQ2/3, 1 µM): 611 ± 46 ms
- τ deact, -80 mV ([1]; KCNQ2/3, 1 µM): 227 ± 20 ms
- Non-normalized tail current V0.5 ([1]; KCNQ2/3, 3 µM): -47.3 ± 5.0 mV
- Normalized tail current V0.5 ([1]; KCNQ2/3, 3 µM): -50.7 ± 1.0 mV
- Slope ([1]; KCNQ2/3, 3 µM): 7.9 ± 0.8 mV
- τ act, -40 mV ([1]; KCNQ2/3, 3 µM): 530 ± 37 ms
- τ deact, -80 mV ([1]; KCNQ2/3, 3 µM): 259 ± 12 ms
- Non-normalized tail current V0.5 ([1]; KCNQ2/3, 10 µM): -51.9 ± 4.8 mV
- Normalized tail current V0.5 ([1]; KCNQ2/3, 10 µM): -56.2 ± 1.3 mV
- Slope ([1]; KCNQ2/3, 10 µM): 6.8 ± 1.3 mV
- τ act, -40 mV ([1]; KCNQ2/3, 10 µM): 462 ± 34 ms
- τ deact, -80 mV ([1]; KCNQ2/3, 10 µM): 261 ± 7 ms
- Non-normalized tail current V0.5 ([1]; KCNQ2/3, 30 µM): -54.9 ± 4.9 mV
- Normalized tail current V0.5 ([1]; KCNQ2/3, 30 µM): -60.0 ± 1.8 mV
- Slope ([1]; KCNQ2/3, 30 µM): 8.0 ± 1.8 mV
- τ act, -20 mV [1, 5]: 205 ± 6 ms
- τ act, -40 mV [1, 5]: 397 ± 26 ms
- τ act, -60 mV [1, 5]: 835 ± 51 ms
- τ deact, -80 mV [1, 6]: 143 ± 39 ms
- τ deact, -90 mV [1, 6]: 105 ± 4.2 ms
- τ deact, -100 mV [1, 6]: 77 ± 6.2 ms
- τ deact, -110 mV [1, 6]: 53 ± 3.5 ms
- τ deact, -120 mV [1, 6]: 36 ± 1.2 ms
- τ act, -40 mV [1, 7]: 403 ± 33 ms
- τ deact, -80 mV [1, 7]: 259 ± 18 ms
- Non-normalized tail current V0.5 ([1]; KCNQ2/3, 100 µM): -56.6 ± 3.8 mV
- Normalized tail current V0.5 ([1]; KCNQ2/3, 100 µM): -57.1 ± 0.6 mV
- Slope ([1]; KCNQ2/3, 100 µM): 7.2 ± 0.5 mV
- τ act, -40 mV ([1]; KCNQ2/3, 100 µM): 403 ± 34 ms
- τ deact, -80 mV ([1]; KCNQ2/3, 100 µM): 415 ± 87 ms
- shift in midpoint voltage dependence (V0.5) of activation ([1]; KCNQ2/3, MTX 30 µM): −17 mV
- EC50 ([1]; V0.5 EC50, KCNQ2/3, calculated from shift in V0.5): 4 ± 0.2 µM
- KCNQ2/3 current increase at −60 mV ([1]; either component alone (MTX 30 µM; IVA 500 µM)): ~ fivefold
- time to plateau of KCNQ2/3 activation after wash-in ([1]; −60 mV current): 5 min
- EC50 [2]: 13 µM
- Non-normalized tail current V0.5 ([2]; KCNQ3*, 1 µM): -56.1 ± 4.2 mV
- Normalized tail current V0.5 ([2]; KCNQ3*, 1 µM): -56.4 ± 1.6 mV
- τ act, -40 mV ([2]; KCNQ3*, 1 µM): 552 ± 98 ms
- τ deact, -80 mV ([2]; KCNQ3*, 1 µM): 290 ± 51 ms
- Non-normalized tail current V0.5 ([2]; KCNQ3*, 3 µM): -57.4 ± 5.3 mV
- Normalized tail current V0.5 ([2]; KCNQ3*, 3 µM): -57.3 ± 1.4 mV
- τ act, -40 mV ([2]; KCNQ3*, 3 µM): 489 ± 55 ms
- τ deact, -80 mV ([2]; KCNQ3*, 3 µM): 263 ± 29 ms
- Non-normalized tail current V0.5 ([2]; KCNQ3*, 10 µM): -59.5 ± 4.2 mV
- Normalized tail current V0.5 ([2]; KCNQ3*, 10 µM): -59.5 ± 1.0 mV
- τ act, -40 mV ([2]; KCNQ3*, 10 µM): 421 ± 26 ms
- τ deact, -80 mV ([2]; KCNQ3*, 10 µM): 244 ± 17 ms
- Non-normalized tail current V0.5 ([2]; KCNQ3*, 30 µM): -62.1 ± 3.9 mV
- Normalized tail current V0.5 ([2]; KCNQ3*, 30 µM): -62.3 ± 1.2 mV
- shift in midpoint voltage of activation ([2]; KCNQ3*, 30 µM): −9 mV
- τ act, -40 mV ([2]; KCNQ3*, 30 µM): 388 ± 20 ms
- τ deact, -80 mV ([2]; KCNQ3*, 30 µM): 240 ± 18 ms
- Non-normalized tail current V0.5 ([2]; KCNQ3*, 100 µM): -65.2 ± 3.9 mV
- Normalized tail current V0.5 ([2]; KCNQ3*, 100 µM): -66.2 ± 2.1 mV
- τ act, -40 mV ([2]; KCNQ3*, 100 µM): 403 ± 36 ms
- τ deact, -80 mV ([2]; KCNQ3*, 100 µM): 269 ± 30 ms
- GRb/GK (ratio of Rb+ conductance to K+ conductance) ([3]; KCNQ2/3, baseline 0.75 ± 0.10): 0.52 ± 0.06
- relative ion permeability of KCNQ2/3 compared to K+ ([3]; 100 mM extracellular ion): increased relative permeability of KCNQ2/3 to Na^+ and Cs^+, and decreased permeability to Rb^+
- EC50 [4]: 14.9 ± 0.1 µM
- Non-normalized tail current V0.5 ([4]; 1 µM): -62.5 ± 3.4 mV
- Normalized tail current V0.5 ([4]; 1 µM): -62.8 ± 0.4 mV
- Slope ([4]; 1 µM): 5.9 ± 0.5 mV
- Non-normalized tail current V0.5 ([4]; 3 µM): -63.6 ± 3.7 mV
- Normalized tail current V0.5 ([4]; 3 µM): -64.1 ± 0.9 mV
- Slope ([4]; 3 µM): 6.3 ± 0.9 mV
- Non-normalized tail current V0.5 ([4]; 10 µM): -66.3 ± 3.9 mV
- Normalized tail current V0.5 ([4]; 10 µM): -67.3 ± 0.9 mV
- Slope ([4]; 10 µM): 6.4 ± 0.6 mV
- Non-normalized tail current V0.5 ([4]; 30 µM): -70.6 ± 3.7 mV
- Normalized tail current V0.5 ([4]; 30 µM): -71.9 ± 0.9 mV
- Slope ([4]; 30 µM): 6.3 ± 0.5 mV
- Non-normalized tail current V0.5 ([4]; 100 µM): -74.4 ± 3.9 mV
- Normalized tail current V0.5 ([4]; 100 µM): -77.3 ± 1.4 mV
- Slope ([4]; 100 µM): 5.9 ± 1.8 mV
